Results as given in PubChem BioAssay AID2060910 (Molecular Pharmacology Branch, DTP, NCI, 2025).

System: 242566-281-R-J2-PDC complex spheroid viability
Assay: Anticancer human tumor 242566-281-R-J2-PDC patient-derived pancreatic carcinoma cell line growth inhibition [RAS]
Conditions: for IC50: curve of first compound; for viability, T/C: stronger effect = lower value
Summary of the method: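 Multi-cell-type spheroids: tumor cells plus HUVEC endothelial cells and mesenchymal stem cells. RAS-pathway inhibitors were combined with targeted agents, each dosed in half-log steps down from clinical Cmax, or from 10 microM when Cmax was unknown.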

[1] = second compound 0.0316 µM, first compound 0.0316 µM
[2] = second compound 0.0316 µM, first compound 0.1 µM
[3] = second compound 0.0316 µM, first compound 0.316 µM
[4] = second compound 0.0316 µM, first compound 1 µM
[5] = second compound 0.0316 µM, first compound 3.16 µM
[6] = second compound 0.0316 µM, first compound 10 µM
[7] = second compound 0.1 µM, first compound 0.0316 µM
[8] = second compound 0.1 µM, first compound 0.1 µM
[9] = second compound 0.1 µM, first compound 0.316 µM
[10] = second compound 0.1 µM, first compound 1 µM
[11] = second compound 0.1 µM, first compound 3.16 µM
[12] = second compound 0.1 µM, first compound 10 µM
[13] = second compound 0.316 µM, first compound 0.0316 µM
[14] = second compound 0.316 µM, first compound 0.1 µM
[15] = second compound 0.316 µM, first compound 0.316 µM
[16] = second compound 0.316 µM, first compound 1 µM
[17] = second compound 0.316 µM, first compound 3.16 µM
[18] = second compound 0.316 µM, first compound 10 µM
[19] = second compound 1 µM, first compound 0.0316 µM
[20] = second compound 1 µM, first compound 0.1 µM
[21] = second compound 1 µM, first compound 0.316 µM
[22] = second compound 1 µM, first compound 1 µM
[23] = second compound 1 µM, first compound 3.16 µM
[24] = second compound 1 µM, first compound 10 µM
[25] = second compound 3.16 µM, first compound 0.0316 µM
[26] = second compound 3.16 µM, first compound 0.1 µM
[27] = second compound 3.16 µM, first compound 0.316 µM
[28] = second compound 3.16 µM, first compound 1 µM
[29] = second compound 3.16 µM, first compound 3.16 µM
[30] = second compound 3.16 µM, first compound 10 µM
[31] = second compound 10 µM, first compound 0.0316 µM
[32] = second compound 10 µM, first compound 0.1 µM
[33] = second compound 10 µM, first compound 0.316 µM
[34] = second compound 10 µM, first compound 1 µM
[35] = second compound 10 µM, first compound 3.16 µM
[36] = second compound 10 µM, first compound 10 µM
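Note: spheroids exposed to compound for 7 days before readout.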
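Throughout, for viability, T/C: 100% = DMSO vehicle control wells.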

## CC(Nc1ccc2c(c1)OCCn1cc(N3C(=O)OCC3C(F)F)nc1-2)C(N)=O (centres undefined) + C#Cc1c(F)ccc2cc(O)cc(-c3ncc4c(N5CC6CCC(C5)N6)nc(OCC56CCCN5CC(F)C6)nc4c3F)c12
Second compound 0.0316 µM
  IC50: 437 nM
Second compound 0.1 µM
  IC50: 184 nM
Second compound 0.316 µM
  IC50: 106 nM
Second compound 1 µM
  IC50: 60.3 nM
Second compound 3.16 µM
  IC50: < 31.6 nM
Second compound 10 µM
  IC50: < 31.6 nM
[1]
  viability, T/C: 101%
[2]
  viability, T/C: 82.8%
[3]
  viability, T/C: 56.6%
[4]
  viability, T/C: 32.5%
[5]
  viability, T/C: 22.3%
[6]
  viability, T/C: 14.2%
[7]
  viability, T/C: 75%
[8]
  viability, T/C: 63.7%
[9]
  viability, T/C: 37.3%
[10]
  viability, T/C: 22.4%
[11]
  viability, T/C: 13.2%
[12]
  viability, T/C: 8.11%
[13]
  viability, T/C: 68%
[14]
  viability, T/C: 51.2%
[15]
  viability, T/C: 24.8%
[16]
  viability, T/C: 8.79%
[17]
  viability, T/C: 7.1%
[18]
  viability, T/C: 4.15%
[19]
  viability, T/C: 58.1%
[20]
  viability, T/C: 43.7%
[21]
  viability, T/C: 23%
[22]
  viability, T/C: 9.54%
[23]
  viability, T/C: 6.78%
[24]
  viability, T/C: 3.29%
[25]
  viability, T/C: 46.5%
[26]
  viability, T/C: 39.2%
[27]
  viability, T/C: 14%
[28]
  viability, T/C: 9.39%
[29]
  viability, T/C: 5.47%
[30]
  viability, T/C: 3.71%
[31]
  viability, T/C: 44%
[32]
  viability, T/C: 32.7%
[33]
  viability, T/C: 19.8%
[34]
  viability, T/C: 6.3%
[35]
  viability, T/C: 5.27%
[36]
  viability, T/C: 2.24%

## C[C@@H](NC(=O)c1ncnc(N)c1Cl)c1ncc(C(=O)Nc2cc(C(F)(F)F)c(Cl)cn2)s1 + C#Cc1c(F)ccc2cc(O)cc(-c3ncc4c(N5CC6CCC(C5)N6)nc(OCC56CCCN5CC(F)C6)nc4c3F)c12
Second compound 0.0316 µM
  IC50: > 10000 nM
Second compound 0.1 µM
  IC50: > 10000 nM
Second compound 0.316 µM
  IC50: > 10000 nM
Second compound 1 µM
  IC50: > 10000 nM
Second compound 3.16 µM
  IC50: > 10000 nM
Second compound 10 µM
  IC50: > 10000 nM
[1]
  viability, T/C: 93.3%
[2]
  viability, T/C: 136%
[3]
  viability, T/C: 93.4%
[4]
  viability, T/C: 85.8%
[5]
  viability, T/C: 97.9%
[6]
  viability, T/C: 95.3%
[7]
  viability, T/C: 91.3%
[8]
  viability, T/C: 102%
[9]
  viability, T/C: 90.9%
[10]
  viability, T/C: 88.4%
[11]
  viability, T/C: 69.9%
[12]
  viability, T/C: 88.8%
[13]
  viability, T/C: 75.9%
[14]
  viability, T/C: 84.1%
[15]
  viability, T/C: 60.8%
[16]
  viability, T/C: 75.4%
[17]
  viability, T/C: 68.1%
[18]
  viability, T/C: 78.4%
[19]
  viability, T/C: 67.2%
[20]
  viability, T/C: 74.5%
[21]
  viability, T/C: 66.6%
[22]
  viability, T/C: 62.1%
[23]
  viability, T/C: 64.2%
[24]
  viability, T/C: 71.4%
[25]
  viability, T/C: 63.4%
[26]
  viability, T/C: 66.7%
[27]
  viability, T/C: 63.7%
[28]
  viability, T/C: 53.9%
[29]
  viability, T/C: 62.2%
[30]
  viability, T/C: 66.2%
[31]
  viability, T/C: 63.3%
[32]
  viability, T/C: 64%
[33]
  viability, T/C: 46.3%
[34]
  viability, T/C: 55%
[35]
  viability, T/C: 60.5%
[36]
  viability, T/C: 63.8%
